Structures are written as SMILES.

In the RepoRT retention time repository (doi:10.1016/j.foodchem.2021.129757) one finds LC retention time data, which are given here for 13 molecules.

One data set is described as follows: RP, Waters Atlantis T3, 100 × 2.1 mm, 3 µm, 40 °C, 0.3 mL/min, estimated dead time 0.73 min; A: water + 0.1% trifluoroacetic acid, pH 2; B: acetonitrile + 0.1% trifluoroacetic acid, pH 2; gradient (min/%B) 0/10 1/10 6/40 7/50 8/50 14/70 16/80 20/10 25/10. The settings on record: stereoisomer not certain.
As to `O=C1CC(c2ccc(O)cc2)Oc2cc(O)cc(O)c21` (centres undefined) [Naringenin], the LC retention time was 10.1 min.

On to `OCC1OC(Oc2cc3c(O)cc(O)cc3[o+]c2-c2ccc(O)c(O)c2)C(O)C(O)C1O` (centres undefined) [Cyanidin 3-O-glucoside], for which the LC retention time is 5.04 min.

On to `O=C(O)/C=C/c1cccc(O)c1` [m-Coumaric acid], for which the LC retention time was 7.5 min.

Consider `O=c1c(O)c(-c2ccc(OC3OC(CO)C(O)C(O)C3O)c(O)c2)oc2cc(O)cc(O)c12` (centres undefined) [Quercetin 4-O-glucoside], for which the LC retention time was 7.94 min.

Take `CC=C1C(OC2OC(CO)C(O)C(O)C2O)OC=C(C(=O)OC)C1CC(=O)OCCc1ccc(O)c(O)c1` (centres undefined) [Oleuropein]: the LC retention time was 8.38 min.

Turning to `O=c1cc(-c2ccc(O)c(O)c2)oc2cc(OC3OC(CO)C(O)C(O)C3O)cc(O)c12` (centres undefined) [Luteolin 7-glucoside], the LC retention time is 7.79 min.

A further data set is described as follows: RP, Phenomenex Synergi Hydro-RP, 150 × 2 mm, 4 µm, 30 °C, 0.5 mL/min, estimated dead time 0.6 min; A: water + 0.1% formic acid, pH 3; B: acetonitrile + 0.1% formic acid, pH 3; gradient (min/%B) 0/5 1/5 35/45 40/100 45/100. The conditions noted are these: stereoisomer not certain.
Take `OCC1OC(Oc2cc3c(O)cc(O)cc3[o+]c2-c2ccc(O)c(O)c2)C(O)C(O)C1O` (centres undefined) [Cyanidin 3-O-glucoside]: the LC retention time is 9.85 min.

Turning to `O=S(=O)(O)Oc1ccccc1O` [Catechol O-sulfate], the LC retention time is 4.29 min.

Take `COc1c(O)cc(C(=O)O)cc1OS(=O)(=O)O` [4-O-methylgallic acid 3-O-sulfate]: the LC retention time was 5.32 min.

The nature of a further data set: RP, Waters ACQUITY UPLC BEH C18, 100 × 2.1 mm, 1.7 µm, 65 °C, 0.4 mL/min, estimated dead time 0.55 min; A: water + 0.1% formic acid, pH 3; B: 80% acetonitrile + 20% acetone + 0.1% formic acid, pH 3; gradient (min/%B) 0/0 5/100 5.5/0 6/0. The conditions noted are these: stereoisomer not certain.
Take `O=C(O)/C=C/c1cccc(O)c1` [m-Coumaric acid]: the LC retention time was 2.14 min.

The nature of the next data set: RP, Phenomenex Luna Omega Polar C18, 100 × 2.1 mm, 1.6 µm, 40 °C, 0.5 mL/min, estimated dead time 0.44 min; A: water + 0.5% formic acid; B: acetonitrile + 0.5% formic acid; gradient (min/%B) 0/5 3/50 3.1/100 5/100 5.1/5 7/5. The settings on record: stereoisomer not certain.
Consider `CC1CCC2(C(=O)O)CCC3(C)C(=CCC4C5(C)CCC(O)C(C)(C)C5CCC43C)C2C1C` (centres undefined) [Ursolic acid], for which the LC retention time was 1.8 min.

On to `O=c1oc2cc(O)ccc2c2ccc(O)cc12` [Urolithin A], for which the LC retention time is 3.08 min.

In the case of `CCCCCCCCCCCCCCCCCCCCCCCCCc1cc(O)cc(O)c1` [Alkylresorcinol C25:0], the LC retention time is 5.12 min.

For `OCC1OC(Oc2cc3c(O)cc(O)cc3[o+]c2-c2ccc(O)c(O)c2)C(O)C(O)C1O` (centres undefined) [Cyanidin 3-O-glucoside], the LC retention time was 1.76 min.

Take `COc1c(O)cc(C(=O)O)cc1OS(=O)(=O)O` [4-O-methylgallic acid 3-O-sulfate]: the LC retention time was 1.41 min.

Turning to `CCCCCCCCCCCCCCCCCc1cc(O)cc(O)c1` [Alkylresorcinol C17:0], the LC retention time is 4.6 min.

Another data set is described as follows: RP, Merck LiChrospher RP-18, 250 × 4 mm, 5 µm, 35 °C, 0.3 mL/min, estimated dead time 6.7 min; A: water + 0.5% formic acid; B: acetonitrile + 0.5% formic acid; gradient (min/%B) 0/5 10/5 30/15 45/20 65/20 95/54 110/63 115/5 135/5. The settings on record: stereoisomer not certain.
`O=C1CC(c2ccc(O)cc2)Oc2cc(O)cc(O)c21` (centres undefined) [Naringenin]: the LC retention time is 95.6 min.

With `OCC1OC(Oc2cc3c(O)cc(O)cc3[o+]c2-c2ccc(O)c(O)c2)C(O)C(O)C1O` (centres undefined) [Cyanidin 3-O-glucoside], the LC retention time is 49 min.

For the molecule `O=C(O)/C=C/c1cccc(O)c1` [m-Coumaric acid], the LC retention time is 63.4 min.

For `O=c1c(O)c(-c2ccc(OC3OC(CO)C(O)C(O)C3O)c(O)c2)oc2cc(O)cc(O)c12` (centres undefined) [Quercetin 4-O-glucoside], the LC retention time was 78 min.

Consider `CC=C1C(OC2OC(CO)C(O)C(O)C2O)OC=C(C(=O)OC)C1CC(=O)OCCc1ccc(O)c(O)c1` (centres undefined) [Oleuropein], for which the LC retention time was 83.2 min.

As for `O=c1cc(-c2ccc(O)c(O)c2)oc2cc(OC3OC(CO)C(O)C(O)C3O)cc(O)c12` (centres undefined) [Luteolin 7-glucoside], the LC retention time is 62.2 min.

The nature of the next data set: RP, Agilent ZORBAX RRHD Eclipse Plus C18, 50 × 2.1 mm, 1.8 µm, 30 °C, 0.4 mL/min, estimated dead time 0.28 min; A: water + 0.1% formic acid, pH 3; B: acetonitrile + 0.1% formic acid, pH 3; gradient (min/%B) 0/1 5/10 8/25 9.1/99 10/99 12/1. The conditions noted are these: stereoisomer not certain.
Take `O=C(O)/C=C/c1cccc(O)c1` [m-Coumaric acid]: the LC retention time is 7.72 min.

For the molecule `O=S(=O)(O)Oc1ccccc1O` [Catechol O-sulfate], the LC retention time is 2.95 min.

For the molecule `COc1c(O)cc(C(=O)O)cc1OS(=O)(=O)O` [4-O-methylgallic acid 3-O-sulfate], the LC retention time was 3.6 min.

Another data set can be described thus: RP, Phenomenex Luna C18, 150 × 4.6 mm, 3 µm, 25 °C, 0.5 mL/min, estimated dead time 3.2 min; A: water + 0.1% formic acid, pH 3; B: acetonitrile + 0.1% formic acid, pH 3; gradient (min/%B) 0/0 30/30 35/40 50/80 52/80 60/0 65/0. The settings on record: stereoisomer not certain.
For `O=c1oc2cc(O)ccc2c2ccc(O)cc12` [Urolithin A], the LC retention time is 35.8 min.

Take `OCC1OC(Oc2cc3c(O)cc(O)cc3[o+]c2-c2ccc(O)c(O)c2)C(O)C(O)C1O` (centres undefined) [Cyanidin 3-O-glucoside]: the LC retention time is 9.83 min.

For `O=S(=O)(O)Oc1ccccc1O` [Catechol O-sulfate], the LC retention time is 18.2 min.

In the case of `COc1c(O)cc(C(=O)O)cc1OS(=O)(=O)O` [4-O-methylgallic acid 3-O-sulfate], the LC retention time was 11.7 min.

For `OCCc1ccc(O)c(O)c1` [Hydroxytyrosol], the LC retention time is 8.55 min.

The nature of the next data set: RP, 50 × 0.5 mm, 2.7 µm, 35 °C, 0.01 mL/min, estimated dead time 0.62 min; A: water + 0.1% formic acid, pH 3; B: acetonitrile + 0.1% formic acid, pH 3; gradient (min/%B) 0/5 12/95 14/95 16/5. The settings on record: stereoisomer not certain.
Take `CC1CCC2(C(=O)O)CCC3(C)C(=CCC4C5(C)CCC(O)C(C)(C)C5CCC43C)C2C1C` (centres undefined) [Ursolic acid]: the LC retention time was 11.2 min.

With `O=c1oc2cc(O)ccc2c2ccc(O)cc12` [Urolithin A], the LC retention time is 5.33 min.

As for `OCC1OC(Oc2cc3c(O)cc(O)cc3[o+]c2-c2ccc(O)c(O)c2)C(O)C(O)C1O` (centres undefined) [Cyanidin 3-O-glucoside], the LC retention time was 3.25 min.

As for `COc1c(O)cc(C(=O)O)cc1OS(=O)(=O)O` [4-O-methylgallic acid 3-O-sulfate], the LC retention time is 1.84 min.

For the molecule `OCCc1ccc(O)c(O)c1` [Hydroxytyrosol], the LC retention time was 1.67 min.

For `CCCCCCCCCCCCCCCCCc1cc(O)cc(O)c1` [Alkylresorcinol C17:0], the LC retention time is 13.3 min.

The next data set in a line: RP, 150 × 2.1 mm, 2.6 µm, 40 °C, 0.35 mL/min, estimated dead time 0.94 min; A: water + 0.1% formic acid, pH 3; B: acetonitrile + 0.1% formic acid, pH 3; gradient (min/%B) 0/0 1/5 7/45 8.5/80 10.5/80 11/5 12/5. The settings on record: stereoisomer not certain.
Consider `O=C1CC(c2ccc(O)cc2)Oc2cc(O)cc(O)c21` (centres undefined) [Naringenin], for which the LC retention time is 7.97 min.

For the molecule `O=c1cc(-c2ccc(O)c(O)c2)oc2cc(OC3OC(CO)C(O)C(O)C3O)cc(O)c12` (centres undefined) [Luteolin 7-glucoside], the LC retention time was 5.79 min.

The next data set is described as follows: RP, Waters ACQUITY UPLC HSS T3, 100 × 2.1 mm, 1.8 µm, 30 °C, 0.4 mL/min, estimated dead time 0.55 min; A: water + 0.1% formic acid, pH 3; B: acetonitrile + 0.1% formic acid, pH 3; gradient (min/%B) 0/0 2/0 15/100 22/100 22.1/0 26/0. The settings on record: stereoisomer not certain.
As for `CC1CCC2(C(=O)O)CCC3(C)C(=CCC4C5(C)CCC(O)C(C)(C)C5CCC43C)C2C1C` (centres undefined) [Ursolic acid], the LC retention time is 18.1 min.

On to `O=c1oc2cc(O)ccc2c2ccc(O)cc12` [Urolithin A], for which the LC retention time is 10.6 min.

`O=C1CC(c2ccc(O)cc2)Oc2cc(O)cc(O)c21` (centres undefined) [Naringenin]: the LC retention time is 11.6 min.

As to `OCC1OC(Oc2cc3c(O)cc(O)cc3[o+]c2-c2ccc(O)c(O)c2)C(O)C(O)C1O` (centres undefined) [Cyanidin 3-O-glucoside], the LC retention time is 7.85 min.

As for `COc1c(O)cc(C(=O)O)cc1OS(=O)(=O)O` [4-O-methylgallic acid 3-O-sulfate], the LC retention time was 7.32 min.

Consider `OCCc1ccc(O)c(O)c1` [Hydroxytyrosol], for which the LC retention time was 7.27 min.
